For one experiment, the target named is T1, motilin receptor (Oryctolagus cuniculus, UniProt G1T803).
T1 construct: from tissue; host or cells: rabbit antral smooth muscle membranes
Briefly: Determination of motilin receptor binding affinity (displacement of [125I-Tyr7, Nle13]motilin(porcine)). Conditions: negative logarithm of the concentration displacing 50% of [125I-Tyr7, Nle13]motilin(porcine) from rabbit antral smooth muscle membranes; read-out: pIC50 (converted). Further details: species or system rabbit. The protocol:
The motilin receptor binding affinity of the peptides of this invention was determined by using the general procedure of Bormans, Peelers and Vantrappen, Regul. […] Fitting was performed using the iterative least-squares procedure of the SAS-software package (SAS Institute, Inc., Cary, N.C., USA).

Experiment [1] has as its target segments of rabbit duodenum (Oryctolagus cuniculus, UniProt G1T803). Briefly: Rabbit duodenal smooth muscle strip tissue bath assay. The class given is cell-based. As to conditions: negative logarithm of the dose giving 50% of the maximal response to motilin; isotonic contraction of rabbit duodenum segments. The protocol:
The contractile response of segments of rabbit duodenum was determined isotonically in the tissue bath according to the procedure of Depoortere et at., J. Gastrointestinal Motility, 1, 150-159 (1989). The experimental protocol consisted of an equilibration period of 1 hour; a challenge with 10^-4 M acetylcholine followed by a wash-out period; a cumulative dose-response curve of a compound with, at the end, the addition of 10^-7 M motilin; and finally 10^-4 M acetylcholine. If the final response to 10^-4 M acetylcholine differed by more than 5% from the initial response, the results were discarded. The compounds were tested in the concentration range 10^-11 to 10^-4 M. The point corresponding to 50% of the maximal response to motilin (Emax) was determined by fitting the equation E=Emax (1+EC50 /[L]) through the data points. […] The dose giving 50% of the response is expressed using its negative logarithm (pEC50).

Molecules are shown by their SMILES. Square brackets hold non-standard residues; d marks the D form. Peptide text beside a SMILES is read from it. * marks the point of attachment. X1 = C[N+](C)(C)[C@@H](Cc1ccccc1)C(=O)*; NMeF = CN[C@@H](Cc1ccccc1)C(=O)O

T1 sequence (G1T803 1-400): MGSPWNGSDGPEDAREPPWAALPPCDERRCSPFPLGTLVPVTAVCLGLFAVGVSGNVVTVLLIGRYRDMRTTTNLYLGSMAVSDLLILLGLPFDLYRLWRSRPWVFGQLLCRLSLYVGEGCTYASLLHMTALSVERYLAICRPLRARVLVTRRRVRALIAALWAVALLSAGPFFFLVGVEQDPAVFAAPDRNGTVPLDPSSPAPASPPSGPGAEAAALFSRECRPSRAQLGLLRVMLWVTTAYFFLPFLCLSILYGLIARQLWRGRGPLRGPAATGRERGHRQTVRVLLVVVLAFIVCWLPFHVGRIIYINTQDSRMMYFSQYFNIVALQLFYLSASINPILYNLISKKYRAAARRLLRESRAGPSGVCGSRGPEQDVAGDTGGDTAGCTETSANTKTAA
segments of rabbit duodenum, sequence (G1T803 1-400): as above

Consider `CC[C@H](C)[C@H](NC(=O)[C@@H]1CCCN1C(=O)[C@@H](NC(=O)[C@@H](N)Cc1ccccc1)C(C)C)C(=O)N[C@@H](Cc1ccccc1)C(=O)N[C@H](C(=O)N[C@@H](Cc1ccc(O)cc1)C(=O)NCC(=O)N[C@@H](CCC(=O)O)C(=O)N[C@@H](CC(C)C)C(=O)N[C@@H](CCC(N)=O)C(=O)N[C@H](CCC(N)=O)C(=O)N[C@@H](CC(C)C)C(=O)N[C@@H](CCC(N)=O)C(=O)O)[C@@H](C)O` [[D-Gln^12, Leu^13]pMOT(1-14)] (H-FVPIFTYGELQ[dQ]LQ-OH), for which, on motilin receptor, the IC50 is 5.62 nM. The pEC50 in experiment [1] came to 7.06.

Turning to `CC[C@H](C)[C@H](NC(=O)[C@@H]1CCCN1C(=O)[C@@H](NC(=O)[C@@H](N)Cc1ccccc1)C(C)C)C(=O)N[C@@H](Cc1ccccc1)C(=O)N[C@H](C(=O)N[C@@H](Cc1ccc(O)cc1)C(=O)N[C@H](C)C(=O)N[C@@H](CCC(=O)O)C(=O)N[C@@H](CC(C)C)C(=O)N[C@@H](CCC(N)=O)C(=O)N[C@H](CCCNC(=N)N)C(=O)N[C@@H](CC(C)C)C(=O)N[C@@H](CCC(N)=O)C(=O)O)[C@@H](C)O` [[D-Ala^8, D-Arg^12, Leu^13]pMOT(1-14), H-Phe-Val-Pro-Ile-Phe-Thr-Tyr-D-Ala-Glu-Leu-Gln-D-Arg-Leu-Gln-OH] (H-FVPIFTY[dA]ELQ[dR]LQ-OH), at motilin receptor, the IC50 is 6.03 nM. Further, the pEC50 in experiment [1] is 7.09.

`CC[C@H](C)[C@H](NC(=O)[C@H](C)NC(=O)[C@@H](NC(=O)[C@H](Cc1ccccc1)[N+](C)(C)C)C(C)C)C(=O)N[C@@H](Cc1ccccc1)C(=O)N[C@H](C(=O)N[C@@H](Cc1ccc(O)cc1)C(=O)NCC(=O)N[C@@H](CCC(=O)O)C(=O)N[C@@H](CC(C)C)C(=O)N[C@@H](CCC(N)=O)C(=O)N[C@H](CCCNC(=N)N)C(=O)N[C@@H](CC(C)C)C(=O)N[C@@H](CCC(N)=O)C(N)=O)[C@@H](C)O` (X1-VAIFTYGELQ[dR]LQ-NH2) [listing 1 of 2 here]: the IC50 at motilin receptor was 1.62 nM.

`CC[C@H](C)[C@H](NC(=O)[C@H](C)NC(=O)[C@@H](NC(=O)[C@H](Cc1ccccc1)[N+](C)(C)C)C(C)C)C(=O)N[C@@H](Cc1ccccc1)C(=O)N[C@H](C(=O)N[C@@H](Cc1ccc(O)cc1)C(=O)NCC(=O)N[C@@H](CCC(=O)O)C(=O)N[C@@H](CC(C)C)C(=O)N[C@@H](CCC(N)=O)C(=O)N[C@H](CCCNC(=N)N)C(=O)N[C@@H](CC(C)C)C(=O)N[C@@H](CCC(N)=O)C(N)=O)[C@@H](C)O` (X1-VAIFTYGELQ[dR]LQ-NH2) [listing 2 of 2 here]: the IC50 on motilin receptor was 2.63 nM.

In the case of `CC[C@H](C)[C@H](NC(=O)[C@@H]1CCCN1C(=O)[C@@H](NC(=O)[C@H](Cc1ccccc1)NC)C(C)C)C(=O)N[C@@H](Cc1ccccc1)C(=O)N[C@H](C(=O)N[C@@H](Cc1ccc(O)cc1)C(=O)NCC(=O)N[C@@H](CCC(=O)O)C(=O)N[C@@H](CC(C)C)C(=O)N[C@@H](CCC(N)=O)C(=O)N[C@@H](CCCNC(=N)N)C(=O)N[C@@H](CC(C)C)C(=O)N[C@H](CCC(N)=O)C(N)=O)[C@@H](C)O` (H-[NMeF]VPIFTYGELQRL[dQ]-NH2), the IC50 at motilin receptor is 0.617 nM.

Turning to `CC[C@H](C)[C@H](NC(=O)[C@H](C)NC(=O)[C@@H](NC(=O)[C@H](Cc1ccccc1)[N+](C)(C)C)C(C)C)C(=O)N[C@@H](Cc1ccccc1)C(=O)N[C@H](C(=O)N[C@@H](Cc1ccc(O)cc1)C(=O)NCC(=O)N[C@@H](CCC(=O)O)C(=O)N[C@@H](CC(C)C)C(=O)N[C@@H](CCC(N)=O)C(=O)N[C@H](CCCNC(=N)N)C(=O)N[C@@H](CC(C)C)C(=O)N[C@@H](CCC(N)=O)C(N)=O)[C@@H](C)O` [[Me3 N^+ Phe^1, Ala^3, D-Arg^13, Leu^13 ]pMOT(1-14) amide] (X1-VAIFTYGELQ[dR]LQ-NH2), the pEC50 in experiment [1] is 7.32.

On to `CC[C@H](C)[C@H](NC(=O)[C@H](C)NC(=O)[C@@H](NC(=O)[C@H](Cc1ccccc1)[N+](C)(C)C)C(C)C)C(=O)N[C@@H](Cc1ccccc1)C(=O)N[C@H](C(=O)N[C@@H](Cc1ccc(O)cc1)C(=O)NCC(=O)N[C@@H](CCC(=O)O)C(=O)N[C@@H](CC(C)C)C(=O)N[C@@H](CCC(N)=O)C(=O)N[C@H](CCCNC(=N)N)C(=O)N[C@@H](CC(C)C)C(=O)N[C@@H](CCC(N)=O)C(N)=O)[C@@H](C)O` [[Me3 N^+ Phe^1, Ala^3, D-Arg^12, Leu^13 pMOT(1-14) amide] (X1-VAIFTYGELQ[dR]LQ-NH2), for which the pEC50 in experiment [1] was 7.57.

The record behind these values is patent US5422341A, “Motilin-like polypeptides with gastrointestinal motor stimulating activity” (Ohmeda Pharmaceutical Products Division Inc., priority 1993, dated 1995).
